Experimental data from PubChem BioAssay (NCI).
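Growth conditions: 96-well plates. Treatment: test compound, 48 hours, 5 concentrations. Analysis: linear interpolation between bracketing concentrations; unreached endpoints set to highest concentration. The concentration for 50% growth inhibition is given as GI50. TGI: total growth inhibition.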

Columns and labels:
Experiment in all cases: NCI tumour cell line growth inhibition, 48 h
OVCAR-5 ovarian = test system: OVCAR-5 ovarian
SN12C renal = test system: SN12C renal
SN12K1 renal = test system: SN12K1 renal
SR leukemia = test system: SR leukemia
SNB-78 CNS = test system: SNB-78 CNS
HOP-18 NSCLC = test system: HOP-18 NSCLC
U251 CNS = test system: U251 CNS
M14 melanoma = test system: M14 melanoma
MALME-3M melanoma = test system: MALME-3M melanoma
PC-3 prostate = test system: PC-3 prostate
KM20L2 colon = test system: KM20L2 colon
NCI-H23 lung = test system: NCI-H23 lung
MOLT-4 leukemia = test system: MOLT-4 leukemia
HL-60(TB) leukemia = test system: HL-60(TB) leukemia
BT-549 breast = test system: BT-549 breast
NCI-H522 lung = test system: NCI-H522 lung
MDA-N = test system: MDA-N
HCT-15 colon = test system: HCT-15 colon
MCF7 breast = test system: MCF7 breast
SW-620 colon = test system: SW-620 colon
NCI-H226 lung = test system: NCI-H226 lung
SK-MEL-28 melanoma = test system: SK-MEL-28 melanoma
EKVX NSCLC = test system: EKVX NSCLC
M19-MEL melanoma = test system: M19-MEL melanoma
OVCAR-8 ovarian = test system: OVCAR-8 ovarian
OVCAR-3 ovarian = test system: OVCAR-3 ovarian
T-47D breast = test system: T-47D breast
SNB-19 CNS = test system: SNB-19 CNS
HOP-62 NSCLC = test system: HOP-62 NSCLC
CAKI-1 renal = test system: CAKI-1 renal
UO-31 renal = test system: UO-31 renal
HOP-92 NSCLC = test system: HOP-92 NSCLC
HS 578T breast = test system: HS 578T breast
A498 renal = test system: A498 renal
RXF 393 renal = test system: RXF 393 renal
MDA-MB-435 = test system: MDA-MB-435
UACC-257 melanoma = test system: UACC-257 melanoma
P388/ADR leukemia = test system: P388/ADR leukemia
SK-MEL-2 melanoma = test system: SK-MEL-2 melanoma
SK-OV-3 ovarian = test system: SK-OV-3 ovarian
LOX IMVI melanoma = test system: LOX IMVI melanoma
UACC-62 melanoma = test system: UACC-62 melanoma
SNB-75 CNS = test system: SNB-75 CNS
786-0 renal = test system: 786-0 renal
COLO 205 colon = test system: COLO 205 colon
HCC-2998 colon = test system: HCC-2998 colon
SF-268 CNS = test system: SF-268 CNS
HT29 colon = test system: HT29 colon
DLD-1 colon = test system: DLD-1 colon
KM12 colon = test system: KM12 colon
DU-145 prostate = test system: DU-145 prostate
CCRF-CEM leukemia = test system: CCRF-CEM leukemia
ACHN renal = test system: ACHN renal
XF 498 CNS = test system: XF 498 CNS
MDA-MB-231 breast = test system: MDA-MB-231 breast
DMS 273 small cell lung = test system: DMS 273 small cell lung
K-562 leukemia = test system: K-562 leukemia
RPMI-8226 leukemia = test system: RPMI-8226 leukemia
HCT-116 colon = test system: HCT-116 colon
SF-295 CNS = test system: SF-295 CNS
IGROV1 ovarian = test system: IGROV1 ovarian
A549 NSCLC = test system: A549 NSCLC
NCI/ADR-RES ovarian = test system: NCI/ADR-RES ovarian
SF-539 CNS = test system: SF-539 CNS
NCI-H460 lung = test system: NCI-H460 lung
TK-10 renal = test system: TK-10 renal
P388 leukemia = test system: P388 leukemia
OVCAR-4 ovarian = test system: OVCAR-4 ovarian
SK-MEL-5 melanoma = test system: SK-MEL-5 melanoma

Work on `COc1cc([C@@H]2c3cc4c(cc3[C@@H](OC3OC5CO[C@@H](c6cccs6)OC5C(O)C3O)[C@H]3COC(=O)[C@H]23)OCO4)cc(OC)c1O` (some centres undefined) yielded a TGI (OVCAR-5 ovarian) of 11.7 µM, a TGI (SN12C renal) of 2.33 µM and a TGI (SN12K1 renal) of 1.84 µM. It also gave a TGI (SR leukemia) of 3.28 µM, a TGI (SNB-78 CNS) of 10.4 µM and a TGI (HOP-18 NSCLC) of 14.2 µM. For the same compound, the TGI (U251 CNS) was 2.47 µM, the TGI (M14 melanoma) was 3.71 µM and the TGI (MALME-3M melanoma) was 4.29 µM. It also gave a TGI (PC-3 prostate) of 21.9 µM, a TGI (KM20L2 colon) of 14.6 µM and a TGI (NCI-H23 lung) of 4.44 µM. For the same compound, the GI50 (MOLT-4 leukemia) was 0.0161 µM, the TGI (MOLT-4 leukemia) was 0.473 µM and the TGI (HL-60(TB) leukemia) was 1.35 µM. The TGI (BT-549 breast) was 2.53 µM, the TGI (NCI-H522 lung) was 4.16 µM and the TGI (MDA-N) was 10.4 µM. For the same compound, the TGI (HCT-15 colon) was 11.3 µM, the TGI (MCF7 breast) was 15.6 µM and the TGI (SW-620 colon) was 9.5 µM. It also gave a TGI (NCI-H226 lung) of 3.05 µM, a TGI (SK-MEL-28 melanoma) of 12.4 µM and a TGI (EKVX NSCLC) of 4.33 µM. For the same compound, the TGI (M19-MEL melanoma) was 12.4 µM, the TGI (OVCAR-8 ovarian) was 3.5 µM and the TGI (OVCAR-3 ovarian) was 6.89 µM. It also gave a TGI (T-47D breast) of 4.21 µM, a TGI (SNB-19 CNS) of 9.24 µM and a TGI (HOP-62 NSCLC) of 0.866 µM. The TGI (CAKI-1 renal) was 2 µM, the TGI (UO-31 renal) was 12.1 µM and the TGI (HOP-92 NSCLC) was 1.76 µM. It also gave a TGI (HS 578T breast) of 4.71 µM, a TGI (A498 renal) of 3.51 µM and a TGI (RXF 393 renal) of 3.38 µM. For the same compound, the TGI (MDA-MB-435) was 10.7 µM, the TGI (UACC-257 melanoma) was 12.3 µM and the TGI (P388/ADR leukemia) was 14.3 µM. For the same compound, the TGI (SK-MEL-2 melanoma) was 4.37 µM, the TGI (SK-OV-3 ovarian) was 1.93 µM and the TGI (LOX IMVI melanoma) was 4.4 µM. It also gave a TGI (UACC-62 melanoma) of 2.71 µM, a TGI (SNB-75 CNS) of 4 µM and a TGI (786-0 renal) of 1.19 µM. The TGI (COLO 205 colon) was 5.06 µM, the TGI (HCC-2998 colon) was 3.47 µM and the TGI (SF-268 CNS) was 7.24 µM. It also gave a TGI (HT29 colon) of 11.7 µM, a TGI (DLD-1 colon) of 11.3 µM and a TGI (KM12 colon) of 5.06 µM. The TGI (DU-145 prostate) was 2.12 µM, the TGI (CCRF-CEM leukemia) was 3.89 µM and the TGI (ACHN renal) was 2.12 µM. It also gave a TGI (XF 498 CNS) of 3.73 µM, a TGI (MDA-MB-231 breast) of 3.81 µM and a TGI (DMS 273 small cell lung) of 3.03 µM. For the same compound, the TGI (K-562 leukemia) was 17.2 µM, the TGI (RPMI-8226 leukemia) was 3.35 µM and the TGI (HCT-116 colon) was 10.7 µM. The TGI (SF-295 CNS) was 1.2 µM, the TGI (IGROV1 ovarian) was 13.3 µM and the TGI (A549 NSCLC) was 4.17 µM. It also gave a TGI (NCI/ADR-RES ovarian) of 25 µM, a TGI (SF-539 CNS) of 2.2 µM and a TGI (NCI-H460 lung) of 2.59 µM. The TGI (TK-10 renal) was 6.89 µM, the TGI (P388 leukemia) was 1.93 µM and the TGI (OVCAR-4 ovarian) was 16.7 µM. For the same compound, the TGI (SK-MEL-5 melanoma) was 3.31 µM.
`COc1ccc(OC)c(C#N)c1C#N` (tested in a mixture with another compound) was tested, and the TGI (OVCAR-5 ovarian) was > 100 µM, the TGI (SN12C renal) was > 100 µM and the TGI (SN12K1 renal) was > 100 µM. The TGI (SNB-78 CNS) was > 100 µM, the TGI (U251 CNS) was > 100 µM and the TGI (MALME-3M melanoma) was > 100 µM. For the same compound, the TGI (KM20L2 colon) was > 100 µM, the TGI (NCI-H23 lung) was > 100 µM and the TGI (MOLT-4 leukemia) was > 100 µM. For the same compound, the TGI (HL-60(TB) leukemia) was > 100 µM, the TGI (HCT-15 colon) was > 100 µM and the TGI (MCF7 breast) was > 100 µM. For the same compound, the TGI (SW-620 colon) was > 100 µM, the TGI (NCI-H226 lung) was > 100 µM and the TGI (SK-MEL-28 melanoma) was > 100 µM. The TGI (EKVX NSCLC) was > 88 µM, the TGI (M19-MEL melanoma) was > 100 µM and the TGI (OVCAR-8 ovarian) was > 100 µM. For the same compound, the TGI (OVCAR-3 ovarian) was > 100 µM, the TGI (SNB-19 CNS) was > 100 µM and the TGI (HOP-62 NSCLC) was > 100 µM. The TGI (CAKI-1 renal) was > 100 µM, the TGI (UO-31 renal) was > 100 µM and the TGI (HOP-92 NSCLC) was > 100 µM. The TGI (A498 renal) was > 100 µM, the TGI (RXF 393 renal) was > 100 µM and the TGI (UACC-257 melanoma) was > 100 µM. The TGI (P388/ADR leukemia) was > 100 µM, the TGI (SK-MEL-2 melanoma) was > 100 µM and the TGI (SK-OV-3 ovarian) was > 100 µM. For the same compound, the TGI (LOX IMVI melanoma) was > 100 µM, the TGI (UACC-62 melanoma) was > 100 µM and the TGI (SNB-75 CNS) was > 100 µM. The TGI (COLO 205 colon) was > 100 µM, the TGI (HCC-2998 colon) was > 100 µM and the TGI (SF-268 CNS) was > 100 µM. The TGI (HT29 colon) was > 100 µM, the TGI (DLD-1 colon) was > 100 µM and the TGI (KM12 colon) was > 100 µM. The TGI (CCRF-CEM leukemia) was > 100 µM, the TGI (XF 498 CNS) was > 100 µM and the TGI (DMS 273 small cell lung) was > 100 µM. The TGI (K-562 leukemia) was > 100 µM, the TGI (RPMI-8226 leukemia) was > 100 µM and the TGI (HCT-116 colon) was > 100 µM. The TGI (SF-295 CNS) was > 100 µM, the TGI (IGROV1 ovarian) was > 100 µM and the TGI (A549 NSCLC) was > 100 µM. The TGI (NCI/ADR-RES ovarian) was > 100 µM, the TGI (SF-539 CNS) was > 100 µM and the TGI (NCI-H460 lung) was > 100 µM. The TGI (P388 leukemia) was > 100 µM, the TGI (OVCAR-4 ovarian) was > 100 µM and the TGI (SK-MEL-5 melanoma) was > 100 µM.
